In the NIST ThermoML archive (doi:10.1016/j.fluid.2004.09.013):

Conditions: for vapor or sublimation pressure: Liquid; for mass density: Fluid (supercritical or subcritical phases), Vibrating tube method

C/C=C/C [(E)-2-butene]
Conditions	vapor or sublimation pressure [kPa]
391.25 K	2128.9
396.15 K	2323.1
401.02 K	2529.8
405.96 K	2755.8
411.21 K	3016
416.99 K	3326
423.45 K	3697

Conditions	mass density [kg/m3]
393.24 K, 2756 kPa	454.89
393.24 K, 10003 kPa	497.51
393.24 K, 19992 kPa	528.52
393.24 K, 24995 kPa	539.91
393.24 K, 29988 kPa	549.71
393.24 K, 34990 kPa	558.37
393.24 K, 39993 kPa	566.17
393.25 K, 4997 kPa	472.39
393.25 K, 14998 kPa	514.88
398.24 K, 2959 kPa	443.84
398.24 K, 4981 kPa	462.17
398.24 K, 19993 kPa	522.99
398.24 K, 24990 kPa	534.84
398.24 K, 29994 kPa	545.03
398.24 K, 34989 kPa	553.97
398.24 K, 39985 kPa	561.98
398.25 K, 9988 kPa	490.01
398.25 K, 14985 kPa	508.6
403.24 K, 3180 kPa	432.03
403.24 K, 4993 kPa	451.14
403.24 K, 20001 kPa	517.41
403.24 K, 24988 kPa	529.74
403.24 K, 29983 kPa	540.28
403.24 K, 40005 kPa	557.82
403.25 K, 9990 kPa	482.36
403.25 K, 14985 kPa	502.24
403.25 K, 34985 kPa	549.53
408.25 K, 3414 kPa	419.31
408.25 K, 4983 kPa	439.35
408.25 K, 9983 kPa	474.42
408.25 K, 14983 kPa	495.75
408.25 K, 19999 kPa	511.74
408.25 K, 24993 kPa	524.63
408.25 K, 29986 kPa	535.55
408.25 K, 35006 kPa	545.13
408.25 K, 39984 kPa	553.58
413.25 K, 3663 kPa	405.52
413.25 K, 4996 kPa	426.54
413.25 K, 9995 kPa	466.32
413.25 K, 14985 kPa	489.18
413.25 K, 19983 kPa	505.96
413.25 K, 24984 kPa	519.43
413.25 K, 30003 kPa	530.83
413.25 K, 34985 kPa	540.64
413.25 K, 39999 kPa	549.4
418.25 K, 3926 kPa	390.44
418.25 K, 5005 kPa	412.09
418.25 K, 10002 kPa	457.93
418.25 K, 14984 kPa	482.48
418.25 K, 19988 kPa	500.19
418.25 K, 25008 kPa	514.29
418.25 K, 30007 kPa	526.05
418.25 K, 34987 kPa	536.18
418.25 K, 40000 kPa	545.19
423.25 K, 4203 kPa	373.85
423.25 K, 4985 kPa	394.86
423.25 K, 9986 kPa	449.09
423.25 K, 14991 kPa	475.65
423.25 K, 20002 kPa	494.39
423.25 K, 24993 kPa	509.02
423.25 K, 30004 kPa	521.25
423.25 K, 34988 kPa	531.71
423.25 K, 39993 kPa	540.98
428.25 K, 4495 kPa	355.87
428.25 K, 4987 kPa	374.39
428.25 K, 9990 kPa	440.12
428.25 K, 14983 kPa	468.7
428.25 K, 20010 kPa	488.52
428.25 K, 24997 kPa	503.78
428.25 K, 30004 kPa	516.44
428.25 K, 34994 kPa	527.25
428.25 K, 39986 kPa	536.76
433.25 K, 5019 kPa	349.08
433.25 K, 9991 kPa	430.38
433.25 K, 14995 kPa	461.71
433.25 K, 19998 kPa	482.53
433.25 K, 25004 kPa	498.52
433.25 K, 30001 kPa	511.61
433.25 K, 34993 kPa	522.78
433.25 K, 39997 kPa	532.57
438.25 K, 5017 kPa	309.55
438.25 K, 9985 kPa	420.62
438.25 K, 14989 kPa	454.5
438.25 K, 19998 kPa	476.52
438.25 K, 25008 kPa	493.22
438.25 K, 30004 kPa	506.79
438.25 K, 34989 kPa	518.29
438.25 K, 39985 kPa	528.34
443.25 K, 5019 kPa	241.91
443.25 K, 9986 kPa	410.38
443.25 K, 14991 kPa	447.2
443.25 K, 20002 kPa	470.46
443.25 K, 25001 kPa	487.86
443.25 K, 30002 kPa	501.91
443.25 K, 34997 kPa	513.82
443.25 K, 39989 kPa	524.15
448.25 K, 5019 kPa	186.22
448.25 K, 9990 kPa	399.76
448.25 K, 14990 kPa	439.76
448.25 K, 19992 kPa	464.3
448.25 K, 24997 kPa	482.49
448.25 K, 29990 kPa	497.07
448.25 K, 34988 kPa	509.34
448.25 K, 39987 kPa	519.97
453.25 K, 5019 kPa	159.59
453.25 K, 9992 kPa	388.61
453.25 K, 14987 kPa	432.19
453.25 K, 20001 kPa	458.19
453.25 K, 24998 kPa	477.11
453.25 K, 29995 kPa	492.22
